Where a name gives a salt, the structure may show the parent alone.
What was measured:
[1] = biological target: T1, human-type OT7T022 (Homo sapiens, UniProt Q9GZQ6); assay: Antagonist activity in cAMP production inhibiting test system using human-type OT7T022-expressing CHO cell; assay type: cell-based; conditions: agonist human-type RFRP-3-8 20 nM + forskolin 2 μM, intracellular cAMP amount
T1 construct: expressed in transfected cells; host or cells: CHO cells (membrane fraction)
Protocol: Test of Antagonist Activity of Compound in Camp Production Inhibiting Test System Using Human-Type OT7T022-Expressing CHO Cell
Antagonist activity of a test compound was measured in an intracellular cAMP production inhibiting test system of a CHO cell expressing human-type OT7T022. In the cAMP production inhibiting test, as an assay buffer, a Hanks' balanced salt solution (Gibco) to which 20 mM HEPES pH 7.4, 0.1% bovine serum albumin, and 0.2 mM 3-isobutyl-1-methylxanthine (Sigma) had been added, was used. A sample compound was adjusted with an assay buffer so that the final concentration became 10^−5M, 10^−6M, 10^−7M, 10^−8M, or 10^−10M. An agonist: human-type RFRP-3-8 (Val-Pro-Asn-Leu-Pro-Gln-Arg-Phe-amide) was diluted with an assay buffer obtained by adding 4 μM (final concentration 2 μM) forscoline to 40 nM (final concentration 20 nM). A human-type OT7T022-expressing CHO cell was passaged on a 96-well plate at 4×10^4/well, and cultured at 37° C., 5% CO2 and 95% air for one day. The plate which had been cultured for one day was washed with an assay buffer (150 μl) two times and, after 30 minutes, this was cultured for 30 minutes at 37° C. and 100% air. […] An intracellular cAMP amount was measured according to a protocol of the present kit using cAMP-Screen™ system (ABI). […]

[2] = biological target: T2, rat-type OT7T022 (Rattus norvegicus, UniProt Q9EP86); assay: Binding inhibiting activity using rat-type OT7T022-expressing CHO cell membrane fraction; conditions: iodine-labeled Y-RFRP-3 100 pM, membrane fraction 0.75 μg/well
T2 construct: expressed in transfected cells; host or cells: CHO cells (membrane fraction)
Protocol: Assessment of Binding Inhibiting Activity of Test Compound Using Rat-Type OT7T022-Expressing CHO Cell
A flask in which a rat-type OT7T022-expressing CHO cell had been cultured was washed with 5 mM EDTA/PBS, cells were peeled with 5 mM EDTA/PBS, and cells were recovered by centrifugation, suspended in 25 mL of a buffer for preparing a membrane fraction (50 mM Tris-HCl, pH 7.5, 5 mM EDTA, 0.5 mM PMSF (manufactured by Wako Pure Chemical Industries, Ltd.), […] (manufactured by Peptide Laboratory), 0.1 μg/mL pepstatin A (manufactured by Peptide Laboratory), 4 μg/mL E-64 (manufactured by Peptide Laboratory)), and homogenized on an ice using Polytron (12,000 rpm, 15 seconds×3 times). This was centrifuged in a high speed cooling centrifuge at 4° C. and 1,000 g for 10 minutes, and the supernatant was recovered. 25 mL of a buffer for preparing a membrane fraction was added to precipitates, and the supernatant was recovered by the same procedure. These supernatants were combined, subjected to a cell strainer, dispensed into tubes for a supercentrifuge, and centrifuged at 4° C. and 100,000 g for 1 hour. The pellet was suspended in a small amount of a buffer for preparing a membrane fraction, this was suspended using a Teflon (registered trade mark) homogenizer, a protein amount was measured using a part, and the remaining was dispensed, and stored at −80° C.
Using an assay buffer (50 mM Tris-HCl, pH 7.5, 5 mM EDTA, 0.5 mM PMSF, 20 μg/mL leupeptin, 0.1 μg/mL pepstatin A, 4 μg/mL E-64, 0.1% bovine serum albumin, 10 mM MgCl2), a membrane fraction of a rat-type OT7T022-expressing CHO cell was diluted to the final concentration of 0.75 μg/well, and iodine-labeled Y-RFRP-3 was diluted to the final concentration of 100 pM. Regarding a sample compound, a 10^−2M or 10^−3M stock solution was diluted with an assay buffer so that the final concentration became 10^−5M, 10^−6M, 10^−7M, 10^−8M, 10^−9M, 10^−10M or 10^−11M. For non-specific binding, hRFRP-3-8 having the final concentration of 10^−5M was prepared. Using a polypropylene 96-well plate, a prepared sample solution, a non-specific binding solution, and 50 μl of an assay buffer for total binding were dispensed, 25 μl of an iodine-labeled form diluent was added, the mixture was stirred, 25 μl of a rat-type OT7T022-expressing CHO cell membrane fraction solution was dispensed, and this was stirred, and incubated at room temperature for 1.5 hours. This was transferred to a unifilter (Perkin Elmer) pre-wetted with a washing buffer (50 mM Tris-HCl, pH 7.5) using a harvester for a 96-well plate (Packard), and this was washed with a washing buffer six times, and sufficiently dried. 50 μl of Microscinti O (Packard) was dispensed, radioactivity was measured with Top Count (Packard), and data were analyzed in a triplicate manner. Binding inhibiting activity (IC50 value) of a test compound for rat-type OT7T022 is shown in [Table 3].

[3] = biological target: T1, human-type OT7T022; assay: Binding inhibiting activity using human-type OT7T022-expressing CHO cell; conditions: 125I-labeled Y-RFRP-3 100 pM, membrane fraction, room temperature 1.5 hours; read-out: IC50 value (binding inhibiting rate)
Protocol: Assessment of Binding Inhibiting Activity of Test Compound Using Human-Type OT7T022-Expressing CHO Cell
Twenty μm of a peptide (Y-RFRP-3) (sequence: Tyr-Val-Pro-Asn-Leu-Pro-Gln-Arg-Phe-amide) (0.1 mM) in which a Tyr residue had been added to a N-terminus of hRFRP-3-8 (sequence: Val-Pro-Asn-Leu-Pro-Gln-Arg-Phe-amide) having binding inhibiting activity equivalent to that of endogenous human-type RFRP-3 (hRFRP-3-28) for human-type OT7T022-expressing CHO cell and 10 μl of distilled water were mixed, 20 μl of a lactoperoxidase solution (Sigma, prepared using 0.1 M HEPES-NaOH, pH 7.0 in 10 μg/mL), 10 μl of Iodine-125 (Amersham, IMS-30, 74 MBq), and 20 μl of 0.005% hydrogen peroxide (Wako Pure Chemical Industries, Ltd.) were successively mixed therein, the mixture was allowed to stand at room temperature for 10 minutes, 600 μl of 0.1% TFA-water was added, this was separated by reverse phase HPLC, a peak of the labeled form was collected, an equivalent amount of a buffer for a binding test (50 mM TrisHCl (pH 7.5), 0.1% BSA, 5 mM EDTA, 0.5 mM PMSF, 20 μg/mL leupeptin, 0.1 μg/mL pepstatin A, […]) was added, and this was immediately stored on ice. A part thereof was 1/100 diluted, radioactivity was measured with a γ-counter, and the remaining authentic product was distributed, which was stored at −30° C.
To a 96-well microplate were added 1 μg of a membrane fraction, a compound and Y-RFRP-3 labeled with ^125I, which had been diluted with a reaction buffer (50 mM Tris-HCl, 5 mM EDTA, 0.1% BSA, 0.5 mM PMSF, 20 μg/ml leupeptin, 0.1 μg/ml pepstatin A, 4 μg/ml E-64, 10 mM MgCl2, pH 7.5), to 100 pM to react them at room temperature for 1.5 hours. For measuring non-specific binding, non-labeled Y-RFRP-3 was further added to […]. Then, a membrane fraction was transferred to a unifilter GF/C (Perkin Elmer) by filtering the reaction mixture using a cell harvester (Perkin Elmer), and this was washed with a cooled 50 mM Tris buffer (pH 7.5) five times. The filter was dried, Microsinti (Packard) was added to the filter, and radioactivity was measured with Topcount (Packard).
A binding inhibiting rate (IC50 value) of a test compound is shown in [Table 1].

Measured: IC50

T1 sequence (Q9GZQ6 whole entry): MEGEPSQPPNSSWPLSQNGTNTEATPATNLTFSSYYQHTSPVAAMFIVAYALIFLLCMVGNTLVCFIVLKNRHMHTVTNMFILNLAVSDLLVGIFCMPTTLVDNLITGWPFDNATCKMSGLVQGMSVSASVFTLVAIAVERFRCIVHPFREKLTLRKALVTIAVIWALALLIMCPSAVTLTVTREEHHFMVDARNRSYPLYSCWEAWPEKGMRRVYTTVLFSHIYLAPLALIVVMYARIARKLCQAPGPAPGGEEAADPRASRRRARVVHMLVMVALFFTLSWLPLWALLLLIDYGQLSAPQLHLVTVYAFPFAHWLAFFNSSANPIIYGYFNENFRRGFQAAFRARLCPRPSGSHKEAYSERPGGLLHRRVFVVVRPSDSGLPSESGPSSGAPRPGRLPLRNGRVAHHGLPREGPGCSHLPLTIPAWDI
T2 sequence (Q9EP86 whole entry): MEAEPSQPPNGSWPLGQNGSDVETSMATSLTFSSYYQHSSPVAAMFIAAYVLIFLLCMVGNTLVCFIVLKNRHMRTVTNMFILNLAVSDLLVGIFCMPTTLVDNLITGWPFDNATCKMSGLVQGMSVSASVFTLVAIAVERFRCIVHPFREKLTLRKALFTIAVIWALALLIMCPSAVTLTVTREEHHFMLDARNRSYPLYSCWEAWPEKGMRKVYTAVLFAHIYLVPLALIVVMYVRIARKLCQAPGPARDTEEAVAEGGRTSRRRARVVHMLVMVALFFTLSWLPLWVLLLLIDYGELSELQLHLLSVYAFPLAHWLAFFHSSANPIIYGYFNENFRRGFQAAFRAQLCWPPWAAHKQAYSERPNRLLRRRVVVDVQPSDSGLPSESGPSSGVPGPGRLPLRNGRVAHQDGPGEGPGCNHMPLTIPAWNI

COc1c(OCCCNCCCc2ccccc2)cccc1[C@H]1O[C@H](CC(=O)NCc2ccccc2F)C(=O)N(CC(C)(C)C)c2ccc(Cl)cc21 (relative stereo) [Example 3, 2-(3,5-trans-7-Chloro-1-(2,2-dimethylpropyl)-5-{2-methoxy-3-[3-(3-phenylpropylamino)propoxy]phenyl}-2-oxo-1,2,3,5-tetrahydro-4,1-benzoxazepin-3-yl)-N-(2-fluorobenzyl)acetamide hydrochloride]
< 1000 nM: all assays above

— patent US20090239839A1, “RECEPTOR ANTAGONIST” (TAKEDA PHARMACEUTICAL COMPANY LIMITED, priority 2003, published 2009)
